Measured values: patent EP4803081A2
Like-named read-outs stand apart in the source and are kept apart here.

Details: ester bond

For `CCn1c(-c2cc(N3CCN(C(=O)OCc4ccccc4)CC3)cnc2[C@H](C)OC)c2c3cc(ccc31)-c1csc(n1)C[C@H](NC(=O)OC(C)(C)C)C(=O)N1CCC[C@H](N1)C(=O)OCC(C)(C)C2`, which ring closure, yield of all isomers (from CCn1c(-c2cc(N3CCN(C(=O)OCc4ccccc4)CC3)cnc2[C@H](C)OC)c(CC(C)(C)CO)c2cc(-c3csc(C[C@H](NC(=O)OC(C)(C)C)C(=O)N4CCC[C@@H](C(=O)O)N4)n3)ccc21, EDCI/HOBt/DIPEA, MeCN, 10.34 mM, 25.0 °C, 16.0 h) is on record?
Its ring closure, yield of all isomers is 55%.

Which ring closure, yield of all isomers (from CCn1c(-c2cc(N3CCN4CCOC[C@@H]4C3)cnc2[C@H](C)OC)c(CC(C)(C)CO)c2cc(C3=CCCN(C[C@H](NC(=O)OC(C)(C)C)C(=O)N4CCC[C@@H](C(=O)O)N4)C3)ccc21, EDC·HCl/HOBt/DIPEA, DCM, 11.3 mM, 0.0 °C, 2.0 h) does the source give for `CCn1c(-c2cc(N3CCN4CCOC[C@@H]4C3)cnc2[C@H](C)OC)c2c3cc(ccc31)C1=CCCN(C1)C[C@H](NC(=O)OC(C)(C)C)C(=O)N1CCC[C@H](N1)C(=O)OCC(C)(C)C2` here?
The ring closure, yield of all isomers was 67%.

For `CC1(C)COC(=O)[C@@H]2CCCN(N2)C(=O)[C@@H](NC(=O)OC(C)(C)C)Cc2cccc(c2)-c2ccc3[nH]c(I)c(c3c2)C1`, which ring closure, yield of all isomers (from CC(C)(CO)Cc1c(I)[nH]c2ccc(-c3cccc(C[C@H](NC(=O)OC(C)(C)C)C(=O)N4CCC[C@@H](C(=O)O)N4)c3)cc12, EDCI/HOBt/DIPEA, DCM, 12.77 mM, 0.0 °C, 16.0 h) is on record?
The ring closure, yield of all isomers was 79.8%.

For `CO[C@@H](C)c1ncc(N2CCN(C3CC3)CC2)cc1-c1c2c3cc(ccc3n1CC(F)(F)F)-c1csc(n1)C[C@H](NC(=O)OC(C)(C)C)C(=O)N1CCC[C@H](N1)C(=O)OCC(C)(C)C2`, which ring closure, yield of all isomers (from CO[C@@H](C)c1ncc(N2CCN(C3CC3)CC2)cc1-c1c(CC(C)(C)CO)c2cc(-c3csc(C[C@H](NC(=O)OC(C)(C)C)C(=O)N4CCC[C@@H](C(=O)O)N4)n3)ccc2n1CC(F)(F)F, EDCI/HOBt/DIPEA, DCM, 21.07 mM, 25.0 °C, 16.0 h) is on record?
The ring closure, yield of all isomers was 51%.

Which ring closure, yield of all isomers (from CCn1c(-c2cc(N3CCN(C4CC4)CC3)cnc2[C@H](C)OC)c(CC(C)(C)CO)c2cc(N3CCO[C@@H](C[C@H](NC(=O)OCc4ccccc4)C(=O)N4CCC[C@@H](C(=O)O)N4)C3)ccc21, EDCI/HOBt/DIPEA, DCM, 11.25 mM, 30.0 °C, 16.0 h) does the source give for `CCn1c(-c2cc(N3CCN(C4CC4)CC3)cnc2[C@H](C)OC)c2c3cc(ccc31)N1CCO[C@@H](C[C@H](NC(=O)OCc3ccccc3)C(=O)N3CCC[C@H](N3)C(=O)OCC(C)(C)C2)C1` here?
The ring closure, yield of all isomers was 50%.

Which ring closure, yield of all isomers (from CCn1c(-c2cccnc2[C@H](C)OC)c(CC(C)(C)CO)c2cc(C3=CCCN(CC(NC(=O)OC(C)(C)C)C(=O)N4CCC[C@@H](C(=O)O)N4)C3)ccc21, EDCI/HOBt/DIPEA, DCM, 7.14 mM, 30.0 °C, 16.0 h) does the source give for `CCn1c(-c2cccnc2[C@H](C)OC)c2c3cc(ccc31)C1=CCCN(C1)CC(NC(=O)OC(C)(C)C)C(=O)N1CCC[C@H](N1)C(=O)OCC(C)(C)C2` (some centres unmarked) here?
The ring closure, yield of all isomers was 40%.

With `CCn1c(-c2cc(N3CCN4CCCC[C@@H]4C3)cnc2[C@H](C)OC)c2c3cc(ccc31)N1CCO[C@@H](C[C@H](NC(=O)OC(C)(C)C)C(=O)N3CCC[C@H](N3)C(=O)OCC(C)(C)C2)C1` as the molecule, how does the ring closure, yield of all isomers (from CCn1c(-c2cc(N3CCN4CCCC[C@@H]4C3)cnc2[C@H](C)OC)c(CC(C)(C)CO)c2cc(N3CCO[C@@H](C[C@H](NC(=O)OC(C)(C)C)C(=O)N4CCC[C@@H](C(=O)O)N4)C3)ccc21, EDCI/HOBt/DIPEA, DMF, 11.2 mM, 25.0 °C, 16.0 h) read?
The ring closure, yield of all isomers was 73%.

For `CCn1c(-c2cc(N3CCN4CCCC[C@@H]4C3)cnc2[C@H](C)OC)c2c3cc(ccc31)-c1cccc(c1)C[C@H](NC(=O)OC(C)(C)C)C(=O)N1CCC[C@H](N1)C(=O)OCC(C)(C)C2`, which ring closure, yield of all isomers (from CCn1c(-c2cc(N3CCN4CCCC[C@@H]4C3)cnc2[C@H](C)OC)c(CC(C)(C)CO)c2cc(-c3cccc(C[C@H](NC(=O)OC(C)(C)C)C(=O)N4CCC[C@@H](C(=O)O)N4)c3)ccc21, EDCI/HOBt/DIPEA, DCM, 5.81 mM, 25.0 °C, 16.0 h) is on record?
Its ring closure, yield of all isomers is 34%.

Which ring closure, yield of all isomers (from CCn1c(-c2cccnc2[C@H](C)OC)c(CC(C)(C)CO)c2cc(N3CCO[C@@H](C[C@H](NC(=O)OCc4ccccc4)C(=O)N4CCC[C@@H](C(=O)O)N4)C3)ccc21, EDCI/HOBt/DIPEA, DCM, 12.75 mM, 25.0 °C, 16.0 h) does the source give for `CCn1c(-c2cccnc2[C@H](C)OC)c2c3cc(ccc31)N1CCO[C@@H](C[C@H](NC(=O)OCc3ccccc3)C(=O)N3CCC[C@H](N3)C(=O)OCC(C)(C)C2)C1` here?
The ring closure, yield of all isomers was 66%.

Which ring closure, yield of all isomers (from CO[C@@H](C)c1ncc(N2CCN3CCCC[C@@H]3C2)cc1-c1c(CC(C)(C)CO)c2cc(-c3cccc(C[C@H](NC(=O)OC(C)(C)C)C(=O)N4CCC[C@@H](C(=O)O)N4)c3)ccc2n1CC(F)(F)F, EDCI/HOBt/DIPEA, DCM, 12.85 mM, 0.0 °C, 16.0 h) does the source give for `CO[C@@H](C)c1ncc(N2CCN3CCCC[C@@H]3C2)cc1-c1c2c3cc(ccc3n1CC(F)(F)F)-c1cccc(c1)C[C@H](NC(=O)OC(C)(C)C)C(=O)N1CCC[C@H](N1)C(=O)OCC(C)(C)C2` here?
Its ring closure, yield of all isomers is 65%.

Which ring closure, yield of all isomers (from CCn1c(-c2cc(N3CCN(C4CC4)CC3)cnc2[C@H](C)OC)c(CC(C)(C)CO)c2cc(C3=CCCN(C[C@H](NC(=O)OC(C)(C)C)C(=O)N4CCC[C@@H](C(=O)O)N4)C3)ccc21, EDCI/HOBt/DIPEA, DCM, 10.0 mM, 35.0 °C, 16.0 h) does the source give for `CCn1c(-c2cc(N3CCN(C4CC4)CC3)cnc2[C@H](C)OC)c2c3cc(ccc31)C1=CCCN(C1)C[C@H](NC(=O)OC(C)(C)C)C(=O)N1CCC[C@H](N1)C(=O)OCC(C)(C)C2` here?
Its ring closure, yield of all isomers is 53%.

With `CCn1c(-c2cc(N3CCN4CCOC[C@@H]4C3)cnc2[C@H](C)OC)c2c3cc(ccc31)-c1csc(n1)C[C@H](NC(=O)OC(C)(C)C)C(=O)N1CCC[C@H](N1)C(=O)OCC(C)(C)C2` as the molecule, how does the ring closure, yield of all isomers (from CCn1c(-c2cc(N3CCN4CCOC[C@@H]4C3)cnc2[C@H](C)OC)c(CC(C)(C)CO)c2cc(-c3csc(C[C@H](NC(=O)OC(C)(C)C)C(=O)N4CCC[C@@H](C(=O)O)N4)n3)ccc21, EDCI/HOBt/DIPEA, DCM, 11.3 mM, 25.0 °C, 16.0 h) read?
Its ring closure, yield of all isomers is 52%.

For `CCn1c(-c2cc(N3CCN4CCCC[C@@H]4C3)cnc2[C@H](C)OC)c2c3cc(ccc31)-c1csc(n1)C[C@H](NC(=O)OC(C)(C)C)C(=O)N1CCC[C@H](N1)C(=O)OCC(C)(C)C2`, which ring closure, yield of all isomers (from CCn1c(-c2cc(N3CCN4CCCC[C@@H]4C3)cnc2[C@H](C)OC)c(CC(C)(C)CO)c2cc(-c3csc(C[C@H](NC(=O)OC(C)(C)C)C(=O)N4CCC[C@@H](C(=O)O)N4)n3)ccc21, EDCI/HOBt/DIPEA, DCM, 11.3 mM, 25.0 °C, 16.0 h) is on record?
The ring closure, yield of all isomers was 49%.

For `CO[C@@H](C)c1ncc(N2CCN3CCOC[C@@H]3C2)cc1-c1c2c3cc(ccc3n1CC(F)(F)F)-c1cccc(c1)C[C@H](NC(=O)OC(C)(C)C)C(=O)N1CCC[C@H](N1)C(=O)OCC(C)(C)C2`, which ring closure, yield of all isomers (from CO[C@@H](C)c1ncc(N2CCN3CCOC[C@@H]3C2)cc1-c1c(CC(C)(C)CO)c2cc(-c3cccc(C[C@H](NC(=O)OC(C)(C)C)C(=O)N4CCC[C@@H](C(=O)O)N4)c3)ccc2n1CC(F)(F)F, EDCI/HOBt/DIPEA, DCM, 5.34 mM, 25.0 °C, 16.0 h) is on record?
Its ring closure, yield of all isomers is 98%.

For `CO[C@@H](C)c1ncc(N2CCN(C3CC3)CC2)cc1-c1c2c3cc(ccc3n1CC(F)(F)F)-c1cccc(c1)C[C@H](NC(=O)OC(C)(C)C)C(=O)N1CCC[C@H](N1)C(=O)OCC(C)(C)C2`, which ring closure, yield of all isomers (from CO[C@@H](C)c1ncc(N2CCN(C3CC3)CC2)cc1-c1c(CC(C)(C)CO)c2cc(-c3cccc(C[C@H](NC(=O)OC(C)(C)C)C(=O)N4CCC[C@@H](C(=O)O)N4)c3)ccc2n1CC(F)(F)F, EDCI/HOBt/DIPEA, DCM, 108.7 mM, 25.0 °C, 16.0 h) is on record?
Its ring closure, yield of all isomers is 79%.

For `CCn1c(-c2cc(N3CCN4CCOC[C@@H]4C3)cnc2[C@H](C)OC)c2c3cc(ccc31)-c1cccc(c1)C[C@H](NC(=O)OC(C)(C)C)C(=O)N1CCC[C@H](N1)C(=O)OCC(C)(C)C2`, which ring closure, yield of all isomers (from CCn1c(-c2cc(N3CCN4CCOC[C@@H]4C3)cnc2[C@H](C)OC)c(CC(C)(C)CO)c2cc(-c3cccc(C[C@H](NC(=O)OC(C)(C)C)C(=O)N4CCC[C@@H](C(=O)O)N4)c3)ccc21, EDCI/HOBt/DIPEA, DCM, 7.56 mM, 25.0 °C, 16.0 h) is on record?
Its ring closure, yield of all isomers is 81%.

For `CCn1c(-c2cc(N3CCN4CCCC[C@@H]4C3)cnc2[C@H](C)OC)c2c3cc(ccc31)C1=CCCN(C1)C[C@H](NC(=O)OC(C)(C)C)C(=O)N1CCC[C@H](N1)C(=O)OCC(C)(C)C2`, which ring closure, yield of all isomers (from CCn1c(-c2cc(N3CCN4CCCC[C@@H]4C3)cnc2[C@H](C)OC)c(CC(C)(C)CO)c2cc(C3=CCCN(C[C@H](NC(=O)OC(C)(C)C)C(=O)N4CCC[C@@H](C(=O)O)N4)C3)ccc21, EDC•HCl/HOBt/DIPEA, DCM, 11.3 mM, 0.0 °C, 16.0 h) is on record?
The ring closure, yield of all isomers was 66%.

For `CCn1c(-c2cccnc2[C@H](C)OC)c2c3cc(ccc31)-c1csc(n1)C[C@H](NC(=O)OC(C)(C)C)C(=O)N1CCC[C@H](N1)C(=O)OCC(C)(C)C2`, which ring closure, yield of all isomers (from CCn1c(-c2cccnc2[C@H](C)OC)c(CC(C)(C)CO)c2cc(-c3csc(C[C@H](NC(=O)OC(C)(C)C)C(=O)N4CCC[C@@H](C(=O)O)N4)n3)ccc21, EDCI/HOBt/DIPEA, DCM, 12.65 mM, 25.0 °C, 16.0 h) is on record?
Its ring closure, yield of all isomers is 81%.

Which ring closure, yield of all isomers (from CO[C@@H](C)c1ncc(N2CCN(C3CC3)CC2)cc1-c1c(CC(C)(C)CO)c2cc(N3CCO[C@@H](C[C@H](NC(=O)OC(C)(C)C)C(=O)N4CCC[C@@H](C(=O)O)N4)C3)ccc2n1CC(F)(F)F, EDCI/HOBt/DIPEA, DCM, 9.22 mM, 25.0 °C, 16.0 h) does the source give for `CO[C@@H](C)c1ncc(N2CCN(C3CC3)CC2)cc1-c1c2c3cc(ccc3n1CC(F)(F)F)N1CCO[C@@H](C[C@H](NC(=O)OC(C)(C)C)C(=O)N3CCC[C@H](N3)C(=O)OCC(C)(C)C2)C1` here?
Its ring closure, yield of all isomers is 64%.

Which ring closure, yield of all isomers (from CCn1c(-c2cc(N3CCN4CCC[C@@H]4C3)cnc2[C@H](C)OC)c(CC(C)(C)CO)c2cc(-c3cccc(C[C@H](NC(=O)OC(C)(C)C)C(=O)N4CCC[C@@H](C(=O)O)N4)c3)ccc21, EDCI/HOBt/DIPEA, DCM, 16.7 mM, 25.0 °C, 16.0 h) does the source give for `CCn1c(-c2cc(N3CCN4CCC[C@@H]4C3)cnc2[C@H](C)OC)c2c3cc(ccc31)-c1cccc(c1)C[C@H](NC(=O)OC(C)(C)C)C(=O)N1CCC[C@H](N1)C(=O)OCC(C)(C)C2` here?
Its ring closure, yield of all isomers is 42%.
